System: β17-estradiol (E2)
Assay: circulating E2 concentration, same clinical trial
Type: in vivo, human
Conditions: for median E2 level: Delayed-ABT cohort, Compound (VI) alone
Experimental: The experiments described in this example were conducted as part of a single-center, open-label, randomized, parallel-group clinical trial in 32 pre-menopausal women. Following screening assessments, and during the second half of the menstrual cycle, women received norethindrone (5 mg, three-times daily for 10 days) to synchronize menstrual cycles. After menstrual cycle synchronization, subjects were randomized with a 1:1 ratio to one of two treatment arms: (i) a cohort receiving once-daily administration of compound (VI) (200 mg per day, administered in the form of a choline salt) with concurrent onset of add-back therapy administration for 10 weeks (“Concurrent-ABT”), or (ii) a cohort receiving pre-treatment with compound (VI) (200 mg per day, administered in the form of a choline salt) for 4 weeks followed by combined daily administration of compound (VI) and add-back therapy (“Delayed-ABT”). The add-back therapy used in these experiments contained 1.0 mg of E2 and 0.5 mg of norethindrone acetate, and was administered to subjects once daily.
The main treatment outcomes and endpoints measured during these experiments included (i) a qualitative assessment of uterine blood loss, which was recorded on a daily basis throughout the study by characterizing each subject's bleeding pattern using one of the following four categories: “no bleeding,” “spotting” (light staining, dark blood, no sanitary protection needed or only panty liner), “bleeding” (1-4 completely soiled maxi sanitary towels or 1-8 soiled tampons or equivalent combination of the two), or “heavy bleeding” (>4 completely soiled maxi sanitary towels or >8 soiled tampons or equivalent combination of the two); (ii) a bi-weekly assessment of each subject's circulating E2 concentration; (iii) a bi-weekly assessment of each subject's circulating progesterone concentration (measured using a validated commercial chemiluminescence immunoassay method (Elecsys Progesterone III, Roche, Burgess Hill, UK)); (iv) the pharmacokinetic profile of compound (VI) and the add-back therapy; and (v) adverse events.

COc1cc(F)c(-n2c(=O)[nH]c3csc(C(=O)O)c3c2=O)cc1OCc1c(OC)ccc(F)c1F [Compound (VI), 3-[2-fluoro-5-(2,3-difluoro-6-methoxybenzyloxy)4-methoxyphenyl]-2,4-dioxo-1,2,3,4-tetrahydrothieno [3,4d]pyrimidine-5-carboxylic acid]
median E2 levels, window never left (Concurrent-ABT cohort, whole study): 20 to 50 pg/mL | median E2 level (by week 2): 3.7 pg/mL | median E2 level (by week 4): 4.1 pg/mL
